Experimental data as given in ChEMBL document CHEMBL4425175, “Synthesis and preliminary in vitro kinase inhibition evaluation of new diversely substituted pyrido[3,4-g]quinazoline derivatives” (Bioorg Med Chem Lett, 2016).

Legend:
[1] = target: Glycogen synthase kinase-3 (Sus scrofa) (UniProt B2LUN4+I6LNT8); test: Inhibition of porcine brain GSKalpha/beta using GS-1 as substrate at 10 uM after 30 mins in presence of [gamma33P] ATP by scintillation counting
[2] = target: Dual specificity tyrosine-phosphorylation-regulated kinase 1A (Rattus norvegicus) (UniProt Q63470); test: Inhibition of GST-fused rat recombinant DYRK1A expressed in Escherichia coli using myelin basic protein as substrate at 10 uM after 30 mins in presence of [gamma33P] ATP by scintillation counting
[3] = target: Dual specificity protein kinase CLK1 (Homo sapiens) (UniProt P49759); test: Inhibition of GST-fused human recombinant CLK1 expressed in Escherichia coli using GRSRSRSRSRSR peptide as substrate at 10 uM
Dual specificity protein kinase CLK1 (Homo sapiens), sequence (P49759 whole entry, looked up, the tested form may be a part): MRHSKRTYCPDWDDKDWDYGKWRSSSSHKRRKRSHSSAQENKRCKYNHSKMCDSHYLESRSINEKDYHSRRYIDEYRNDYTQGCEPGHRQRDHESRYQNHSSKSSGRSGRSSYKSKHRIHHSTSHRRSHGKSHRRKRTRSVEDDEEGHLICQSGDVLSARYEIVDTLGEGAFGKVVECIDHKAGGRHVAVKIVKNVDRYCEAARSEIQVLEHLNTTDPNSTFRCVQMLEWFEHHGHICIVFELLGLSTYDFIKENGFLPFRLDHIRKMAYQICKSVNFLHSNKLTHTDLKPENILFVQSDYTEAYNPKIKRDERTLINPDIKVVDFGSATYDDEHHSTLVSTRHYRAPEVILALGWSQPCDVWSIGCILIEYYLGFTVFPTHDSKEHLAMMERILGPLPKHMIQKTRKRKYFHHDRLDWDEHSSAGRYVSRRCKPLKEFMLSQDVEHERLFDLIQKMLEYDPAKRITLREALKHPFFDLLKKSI

Sus scrofa = organism: Sus scrofa; test: Inhibition of porcine brain CK1delta/epsilon using RRKHAAIGpSAYSITA as substrate at 10 uM after 30 mins in presence of [gamma33P] ATP by scintillation counting
[4] = target: Cyclin-dependent kinase 5/CDK5 activator 1 (Homo sapiens) (UniProt Q00535+Q15078); test: Inhibition of human recombinant CDK5/p25 using histone1 as substrate at 10 uM after 30 mins in presence of [gamma33P] ATP by scintillation counting; type: protein-complex assay
Cyclin-dependent kinase 5/CDK5 activator 1 (Homo sapiens), sequence (Q00535 whole entry): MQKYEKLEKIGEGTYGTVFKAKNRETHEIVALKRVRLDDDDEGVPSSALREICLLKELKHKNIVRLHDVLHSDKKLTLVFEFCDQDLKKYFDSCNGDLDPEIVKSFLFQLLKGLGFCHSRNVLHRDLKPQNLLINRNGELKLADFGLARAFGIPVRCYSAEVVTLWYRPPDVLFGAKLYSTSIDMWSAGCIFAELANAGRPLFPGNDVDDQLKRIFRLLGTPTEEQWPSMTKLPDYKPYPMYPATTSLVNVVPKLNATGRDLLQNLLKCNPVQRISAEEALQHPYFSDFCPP
Cyclin-dependent kinase 5/CDK5 activator 1 (Homo sapiens), sequence (Q15078 99-307 partner limits assumed): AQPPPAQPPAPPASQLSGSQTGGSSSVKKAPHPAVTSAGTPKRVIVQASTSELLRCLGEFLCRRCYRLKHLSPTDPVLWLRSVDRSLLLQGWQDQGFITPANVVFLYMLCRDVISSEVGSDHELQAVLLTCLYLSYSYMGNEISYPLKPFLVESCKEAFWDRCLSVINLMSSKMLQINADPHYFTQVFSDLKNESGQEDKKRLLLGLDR

Structure (SMILES)	inhibition [1]	inhibition [2]	inhibition [3]	inhibition (Sus scrofa)	inhibition [4]
CCCCc1c2cnccc2c([N+](=O)[O-])c2nc(N)ncc12	100%	86%	31%	57%	91%
Cc1c2cnccc2c(N)c2nc(N)ncc12	43%	90%	30%	70%	54%
Cc1c2cnccc2c([N+](=O)[O-])c2nc(N)ncc12	78%	82%	30%	83%	88%
CCCCc1c2cnccc2c(N)c2nc(N)ncc12	34%	52%	31%	42%	0%
CCc1c2cnccc2c([N+](=O)[O-])c2nc(N)ncc12	98%	80%	31%	87%	96%
Nc1ncc2c(-c3ccccc3)c3cnccc3c([N+](=O)[O-])c2n1	74%	53%	30%	49%	25%
Nc1ncc2cc3cnccc3c(N)c2n1	54%	99%	100%	76%	70%
Nc1ncc2c(Br)c3cnccc3c([N+](=O)[O-])c2n1	41%	76%	28%	34%	0%
Nc1ncc2cc3cnccc3c([N+](=O)[O-])c2n1	75%	95%	98%	91%	44%
Nc1ncc2c(Cc3ccccc3)c3cnccc3c([N+](=O)[O-])c2n1	14%	40%	37%	64%	2%
Nc1ncc2c(Cc3ccccc3)c3cnccc3c(N)c2n1	12%	49%	29%	76%	4%
Nc1ncc2c(-c3ccccc3)c3cnccc3c(N)c2n1	25%	49%	32%	55%	33%
CCc1c2cnccc2c(N)c2nc(N)ncc12	79%	65%	31%	84%	61%
